Data published in patent US5583155A, “6-amino-1,2-benzopyrones useful for treatment of viral diseases” (Octamer, Inc., priority 1994, dated 1996).
Where “and” joins values, the source holds several entries; their conditions need not be identical. Equal entries are not always repeated.

What was measured:
CMV = conditions: cited from earlier work
oris DNA of HSV-1 = experiment: Nitrocellulose filter binding to HSV-1 oris DNA; conditions: input oris DNA 8,000/sample
Experimental: This example illustrates HSV DNA binding at the site of replication (oris) initiation at ADPRT.
The 230 bp XbaI-HindIII oris DNA of HSV-1 was isolated from plasmid pKC4 and radioactively labeled with [32P]dCTP by fill-in reaction with the Klenow form of E. coli DNA polymerase. Labeled DNA fragments were purified as previously described in J. Virol., 63:2773 (1989).
Nitrocellulose filters (Schleicher and Schuell, BA 85, […] pore size, 27 mm diameter) were presoaked for 60 minutes in binding buffer (250 mM Tris-Cl, pH 8.0, 100 mM MgCl2, 1000 mM NaCl, 0.6 mM DTT, 0.1 mg/ml BSA, 0.1 mM PMSF and 0.1 mM TLCK). 5 ul of [32P] oris DNA was added to 210 ul of cold binding buffer and incubated for 1 minute. 2 ul of either ADPRT (200 ng) or HSV-1 infected Vero cell extract (Vero(F), 2 ug) was then added to the DNA solution and incubated for 10 minutes at 25° C. Samples were transferred to ice, followed by filtration through the nitrocellulose filters. The filters were then washed four times with cold wash buffer containing 25 mM Tris-Cl, pH 8.0, 10 mM MgCl2, 0.5 mM DTT, 100 mM NaCl, 5% DMSO. The filters were dried and the amount of radioactive material bound to the filters was determined by scintillation spectrophotometry.

ADPRT [1] = experiment: Binding to ADPRT; conditions: 6-nitroso oxidation product
ADPRT [2] = conditions: Proc. Nat. Acad. Sci. (USA), 84:1107 (1987); cited from earlier work

## Nc1nc2c(ncn2COCCO)c(=O)[nH]1 [acyclovir]
CMV
  CMV sensitivity: CMV is resistant to acyclovir

## ADPRT
Oris DNA of HSV-1
  % Specific Bound: 78.6% and ~80%
Oris DNA of HSV-1; average of duplicate samples
  CPM Bound to Filter: 6384 CPM

## O=Nc1ccc2oc(=O)ccc2c1 [6-NBP, 6-nitroso-1,2-benzopyrone]
ADPRT [1]
  binding to zinc-fingers of ADPRT: binds specifically and with high affinity

## O=c1ccc2ccccc2o1 [1,2-benzopyrone]
ADPRT [2]
  inhibition of ADPRT: inhibitory ligand
